{
  "source": "paper PMC9032233",
  "about": "“2-{5-[(Z,2Z)-2-Chloro-3-(4-nitrophenyl)-2-propenylidene]-4-oxo-2-thioxothiazolidin-3-yl}-3-methylbutanoic Acid as a Potential Anti-Breast Cancer Molecule” (International Journal of Molecular Sciences, 2022)",
  "key": {"[1]": {"system": "caspase-8", "test": "Caspase-8 concentration in MDA-MB-231 cell lysates (ELISA)", "format": "cell-based, human", "conditions": "24 h, control 0.828 ng/mL", "experimental": "(§1) High sensitivity assay kits (EIAab Science Co., Ltd., Wuhan, China; Abcam plc., Cambridge, United Kingdom; Cloud-Clone Corp., Katy, TX, USA) were used to determine the concentrations of selected proteins in cell lysates after 24 h incubation with novel compound and reference drug in 1 µM and 5 µM concentrations. In brief, after trypsinization, cells were washed thrice with cold PBS and centrifuged at 1000× g for 5 min at 4 °C. Then, cells (1.5 × 10^6) were suspended in lysis buffer for whole-cell lysates. After the second centrifugation, cellular supernatants were frozen immediately at −70 °C. Untreated cancer cells were taken as a control.\n(§2) The microtiter plates provided in the kits were pre-coated with an antibody specific to the analyzed antigen. The tests were carried out according to the manufacturer’s protocols."}, "[2]": {"system": "topoisomerase IIα", "test": "Flow cytometric analysis of anti-topoisomerase IIα antibody, MCF-7", "format": "cell-based, human", "conditions": "24 h", "experimental": "(§3) To confirm the ELISA results, flow cytometric analysis of Top II activity using an anti-topoisomerase IIα antibody conjugated with phycoerythrin (PE) was performed. The Les-3331 and etoposide were used at 1 µM and 5 µM concentrations. Cancer cells were incubated for 24 h with tested compounds and the assay was carried out in accordance with the manufacturer’s protocol. Briefly, cells were centrifuged and resuspended in 4% formaldehyde. Then, cells were incubated at RT for 15 min and subsequently washed with excess PBS and centrifuged. Thereafter, ice-cold 90% methanol was added to the cells and they were incubated for 1 h in an ice bath. Next, cells were washed with excess PBS and centrifuged again. In the meantime, the primary antibody was diluted (1:100) in PBS. Then, cells were resuspended in the prepared primary antibody (100 µL) and incubated at RT, protected from light, for 1 h. Finally, cells were washed and resuspended in PBS (300 µL). The prepared samples were measured immediately. Analysis of the obtained results was performed using a flow cytometer (BD FACSCanto II, Becton Dickinson Biosciences Systems, San Jose, CA, USA) and FACSDiva software (v6.1.3, BD Biosciences Systems, San Jose, CA, USA). The equipment was calibrated with BD Cytometer Setup and Tracking Beads (BD Biosciences, San Diego, CA, USA)."}, "[3]": {"system": "MCF-7 human breast cancer cells", "test": "MTT cell viability assay, MCF-7", "format": "cell-based", "conditions": "MCF7, MCF-7, MTT, 24 h incubation", "experimental": "Cell culture MCF-7, MDA-MB-231 human breast cancer cells, and fibroblasts skin cells were purchased from the ATCC—American Type Culture Collection. All cell lines were maintained in DMEM (Corning, Kennebunk, ME, USA). The medium was supplemented with 10% fetal bovine serum—FBS (Eurx, Gdansk, Poland) and 1% antimicrobial substances: penicillin–streptomycin (Corning, Kennebunk, ME, USA). The incubator asserted appropriate growth conditions required for these cell lines: 5% of CO2, at 37 °C, with the humidity between 90–95%. Cells were seeded in 100 mm round dishes. An amount of 0.05% trypsin containing 0.02% EDTA (Corning, Kennebunk, ME, USA) and phosphate-buffered saline (PBS) without calcium and magnesium (Corning, Kennebunk, ME, USA) was used to detach cells from a plate once 80–90% cell confluence was achieved. In the next step, cells were reseeded in six-well plates (density—5 × 10^5 of cells per well) in 1 mL of DMEM after a 24 h incubation used in the presented tests.\nTo examine the effect of Les-3331 on cell viability, the MTT assay was performed. […] The absorbance was measured using Spectrophotometer UV-VIS Helios Gamma (Unicam/ThermoFisher Scientific Inc., Waltham, MA, USA) at a wavelength of 570 nm. The obtained absorbance in untreated control cells was taken as 100%, while the survival of the cells incubated with tested compounds presented as a percentage of the control value."}, "[4]": {"system": "topoisomerase IIα", "test": "Flow cytometric analysis of anti-topoisomerase IIα antibody, MDA-MB-231", "format": "cell-based, human", "conditions": "24 h", "experimental": "as §3"}, "[5]": {"system": "topoisomerase II", "test": "Topoisomerase II concentration in MCF-7 cell lysates (ELISA)", "format": "cell-based, human", "conditions": "24 h, control 2.260 ng/mL", "experimental": "as §1, §2"}, "[6]": {"system": "caspase-8", "test": "Caspase-8 concentration in MCF-7 cell lysates (ELISA)", "format": "cell-based, human", "conditions": "24 h, control 0.901 ng/mL", "experimental": "as §1, §2"}, "[7]": {"system": "MDA-MB-231 cells", "test": "[3H]-thymidine incorporation assay, MDA-MB-231", "format": "cell-based", "conditions": "Homo sapiens", "experimental": "(§4) The antiproliferative properties of the newly synthesized compound were investigated through the [^3H]-thymidine incorporation assay, as described in the literature. Cells culture was exposed to various concentrations of Les-3331 acid and reference drug for 24 h. Thereafter, cells were washed with PBS and 1 mL of fresh medium was added to each well. Then, 0.5 µCi of radioactive [^3H]-thymidine was appended, and the incubation continued for four hours. After the following incubation, the liquid was aspirated and the plate was placed on ice. Cells were washed twice with 1 mL of 0.05 M Tris-HCl buffer comprising 0.11 M NaCl, then twice after that with 1 mL of 5% TCA acid (Stanlab, Lublin, Poland). Finally, the cells were dissolved with 1 mL of 0.1 M NaOH with 1% SDS (Sigma-Aldrich, St. Louis, MO, USA) at room temperature (RT). The resulting cell lysates were transferred into scintillation vials containing 2 mL of scintillation fluid. The radioactivity was determined using Scintillation Counter 1900 TR, TRI-CARB (Packard, Perkin Elmer, Inc., San Jose, CA, USA). The intensity of DNA biosynthesis in cells was expressed in dpm of radioactive thymidine incorporated in the DNA. The radioactivity observed in untreated control cells was taken as 100%. Values from the tested compounds were expressed as a percentage of the control value."}, "[8]": {"system": "MCF-7 cancer cells", "test": "[3H]-thymidine incorporation assay, MCF-7", "format": "cell-based", "conditions": "Homo sapiens", "experimental": "as §4"}},
  "note": "Like-named read-outs stand apart in the source and are kept apart here.",
  "data": [
    {"smiles": "COc1cc([C@@H]2c3cc4c(cc3[C@@H](O[C@@H]3O[C@@H]5CO[C@@H](C)O[C@H]5[C@H](O)[C@H]3O)[C@H]3COC(=O)[C@H]23)OCO4)cc(OC)c1O", "note": "[Etoposide, reference compound]", "values": [
      {"measurement": "Casp-8 concentration", "setting": "[1]; MDA-MB-231, 1 µM", "result": 0.836, "unit": "ng/mL"},
      {"measurement": "Casp-8 concentration", "setting": "[1]; MDA-MB-231, 5 µM", "result": 0.857, "unit": "ng/mL"},
      {"measurement": "% of cells without anti-topoisomerase IIα antibody", "setting": "[2]; MCF-7, 1 µM", "result": 8.6, "unit": "%"},
      {"measurement": "% of cells without anti-topoisomerase IIα antibody", "setting": "[2]; MCF-7, 5 µM", "result": 11.8, "unit": "%"},
      {"measurement": "IC50", "setting": "[3]", "result": "> 50", "unit": "µM"},
      {"measurement": "% of cells without anti-topoisomerase IIα antibody", "setting": "[4]; MDA-MB-231, 1 µM", "result": 7.5, "unit": "%"},
      {"measurement": "% of cells without anti-topoisomerase IIα antibody", "setting": "[4]; MDA-MB-231, 5 µM", "result": 9.1, "unit": "%"},
      {"measurement": "Top II concentration", "setting": "[5]; MCF-7, 1 µM", "result": 1.587, "unit": "ng/mL"},
      {"measurement": "Top II concentration", "setting": "[5]; MCF-7, 5 µM", "result": 1.443, "unit": "ng/mL"},
      {"measurement": "Casp-8 concentration", "setting": "[6]; 1 µM", "result": 0.812, "unit": "ng/mL"},
      {"measurement": "Casp-8 concentration", "setting": "[6]; 5 µM", "result": 0.951, "unit": "ng/mL"},
      {"measurement": "IC50", "setting": "[7]; MDA-MB-231, 24 h incubation, read-out: IC50, cell proliferation ([3H]-thymidine incorporation)", "result": "> 20", "unit": "µM"},
      {"measurement": "IC50", "setting": "[8]; MCF7, MCF-7, 24 h incubation, read-out: IC50, cell proliferation ([3H]-thymidine incorporation)", "result": "> 20", "unit": "µM"}
    ]},
    {"smiles": "CC(C)C(C(=O)O)N1C(=O)/C(=C/C(Cl)=C/c2ccc([N+](=O)[O-])cc2)SC1=S", "note": "(centres unmarked) [Les-3331, 2-{5-[(Z,2Z)-2-chloro-3-(4-nitrophenyl)-2-propenylidene]-4-oxo-2-thioxothiazolidin-3-yl}-3-methylbutanoic acid]", "values": [
      {"measurement": "Casp-8 concentration", "setting": "[1]; MDA-MB-231, 1 µM", "result": 1.012, "unit": "ng/mL"},
      {"measurement": "Casp-8 concentration", "setting": "[1]; MDA-MB-231, 5 µM", "result": 1.067, "unit": "ng/mL"},
      {"measurement": "% of cells without anti-topoisomerase IIα antibody", "setting": "[2]; MCF-7, 1 µM", "result": 34.1, "unit": "%"},
      {"measurement": "% of cells without anti-topoisomerase IIα antibody", "setting": "[2]; MCF-7, 5 µM", "result": 49.2, "unit": "%"},
      {"measurement": "IC50", "setting": "[3]", "result": 5.02, "unit": "µM"},
      {"measurement": "% of cells without anti-topoisomerase IIα antibody", "setting": "[4]; MDA-MB-231, 1 µM", "result": 5.4, "unit": "%"},
      {"measurement": "% of cells without anti-topoisomerase IIα antibody", "setting": "[4]; MDA-MB-231, 5 µM", "result": 30.9, "unit": "%"},
      {"measurement": "Top II concentration", "setting": "[5]; MCF-7, 1 µM", "result": 0.900, "unit": "ng/mL"},
      {"measurement": "Top II concentration", "setting": "[5]; MCF-7, 5 µM", "result": 0.625, "unit": "ng/mL"},
      {"measurement": "Casp-8 concentration", "setting": "[6]; 1 µM", "result": 1.050, "unit": "ng/mL"},
      {"measurement": "Casp-8 concentration", "setting": "[6]; 5 µM", "result": 1.253, "unit": "ng/mL"},
      {"measurement": "IC50", "setting": "[7]; MDA-MB-231, read-out: IC50, cell proliferation ([3H]-thymidine incorporation)", "result": 8.01, "unit": "µM"},
      {"measurement": "IC50", "setting": "[8]; MCF7, read-out: IC50, cell proliferation ([3H]-thymidine incorporation)", "result": 5.54, "unit": "µM"}
    ]}
  ]
}
